Key:
[1] = tested on: T. cruzi amastigotes; assay: High-content screening assay on intracellular T. cruzi amastigotes; type: cell-based, Trypanosoma cruzi; details: up to a concentration of 2000 μM (2 mM)
Experimental: For the evaluation of the activity against T. cruzi amastigotes, high-content screening (HCS) was designed. In summary, 100 μL of host C2C12 cells (ATCC) were seeded in clear bottom black 96-well plates at a density of 2.5 x 10^4 cells/mL (2.5 × 10^3 cells/well). After 24 hrs, 50 μL of Y strain tissue culture-derived trypomastigotes were used to infect the host cells at a density of 7.5 x 10^5/mL (3.75 x 10^4 parasites/well). The parasites were allowed to infect for a 24 hr period, after which compounds were added in a volume of 50 μL. […] After 72 hrs of compound incubation, the wells were fixed with 4% paraformaldehyde for 15 to 30 mins. The plates were then washed once with deionized water and stained with a solution of DAPI (3 μM) for 1 hour. Plates were imaged in an INCell 2000 (GE Healthcare) high-content analyser by taking 16 pictures per well at 20 X objective amplification. Images were analysed with INCell Developer software (GE Healthcare) using the segmentation of host cell nuclei and parasite kinetoplast DNA. The measurement output used was the average number of parasites per cell calculated by the ratio of host cell nuclei/parasite kinetoplast DNA.
In this assay, the compounds are incubated for 72 hours with cells previously infected with wild-type trypomastigotes for 24 hours. The readout was done by comparing the average number of amastigotes per cell that developed by the end of the incubation period. The quality of the assay was statistically evaluated by the calculation of the z-factor [75], that represents the reliability of the assay in distinguishing positive controls confidently from negative controls. Varying from 0 to 1, z-factor values higher than 0.5 are considered acceptable for drug screening. The z-factor obtained was 0.68, validating the use of the assay (S3B Fig).

[2] = biological target: TcSir2rp1 (Trypanosoma cruzi, UniProt Q4DVL9); assay: TcSir2rp1 NAD+-dependent deacetylase fluorimetric assay (CycLex kit); type: biochemical
TcSir2rp1, sequence (Q4DVL9 entry or part of it): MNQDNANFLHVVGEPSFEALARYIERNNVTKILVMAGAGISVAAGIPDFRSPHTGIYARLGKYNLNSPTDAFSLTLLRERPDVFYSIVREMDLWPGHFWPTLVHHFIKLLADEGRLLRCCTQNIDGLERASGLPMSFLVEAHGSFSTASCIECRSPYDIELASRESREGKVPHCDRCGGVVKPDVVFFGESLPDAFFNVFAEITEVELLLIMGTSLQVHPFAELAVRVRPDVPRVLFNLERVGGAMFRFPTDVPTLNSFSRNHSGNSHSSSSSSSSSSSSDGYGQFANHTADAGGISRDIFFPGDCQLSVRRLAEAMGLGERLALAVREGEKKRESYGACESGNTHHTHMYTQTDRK
Experimental: The deacetylase activity was measured using the commercial SIRT1/Sir2 Deacetylase Fluorometric Assay Kit (CycLex,Japan) according to the manufacturer’s recommendations. Briefly, fluorescence emission after digestion of deacetylated substrates by a lysine specific endopeptidase was measured in a fluorometric plate reader (Synergy HT, BioTek) with excitation and emission wavelengths set at 340 and 440 nm, respectively, every 30 seconds for 1 hour. The slope of the linear part of the reaction was calculated and used as readout of enzyme activity. […]
(§1) A variety of the bisnaphthalimidopropyl (BNIPs) derivatives, as well as the newly synthetized derivatives were evaluated as potential TcSir2rp1 inhibitors. The enzymatic reactions were performed using a commercially available CycLex SIRT1/Sir2 deacetylase fluorimetric kit (CycLex Co. Ltd., Nagano, Japan) in the absence and presence of the various inhibitors, 200 μM NAD^+ and 10 μM of peptide substrate as previously described.
as §1, with “µM” for “μM”

[3] = biological target: T1, TbSir2rp1 (Trypanosoma brucei brucei, UniProt Q57V41); assay: TbSir2rp1 deacetylase inhibition; type: biochemical
T1 construct: hexahistidine (C); made in house
T1 sequence (Q57V41 whole entry): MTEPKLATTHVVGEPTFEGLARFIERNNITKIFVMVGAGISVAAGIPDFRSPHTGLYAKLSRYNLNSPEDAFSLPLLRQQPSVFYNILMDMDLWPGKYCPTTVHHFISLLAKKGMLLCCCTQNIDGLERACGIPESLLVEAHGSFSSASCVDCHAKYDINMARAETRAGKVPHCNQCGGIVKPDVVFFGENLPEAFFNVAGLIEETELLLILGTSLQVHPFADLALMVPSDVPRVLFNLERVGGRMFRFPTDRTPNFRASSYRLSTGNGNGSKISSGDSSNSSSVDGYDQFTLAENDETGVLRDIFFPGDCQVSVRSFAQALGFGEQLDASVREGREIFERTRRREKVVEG
Experimental: (§2) T. brucei Sir2rp1 (accession number: AAX70528.1) tagged with a C-terminal hexahistidine was expressed and characterized essentiality as described previously L. infantum Sir2rp1 was expressed and purified as previously described.
(§3) The deacetylase activity was measured using the commercial SIRT1/Sir2 Deacetylase Fluorometric Assay Kit (CycLex,Japan) according to the manufacturer’s recommendations. Briefly, fluorescence emission after digestion of deacetylated substrates by a lysine specific endopeptidase was measured in a fluorometric plate reader (Synergy HT, BioTek) with excitation and emission wavelengths set at 340 and 440 nm, respectively, every 30 seconds for 1 hour. The slope of the linear part of the reaction was calculated and used as readout of enzyme activity.

[4] = biological target: T2, LiSir2rp1 (Leishmania infantum, UniProt A0A6L0XH39); assay: LiSir2rp1 deacetylase inhibition; type: biochemical
T2 construct: made in house
T2 sequence (A0A6L0XH39 entry or part of it): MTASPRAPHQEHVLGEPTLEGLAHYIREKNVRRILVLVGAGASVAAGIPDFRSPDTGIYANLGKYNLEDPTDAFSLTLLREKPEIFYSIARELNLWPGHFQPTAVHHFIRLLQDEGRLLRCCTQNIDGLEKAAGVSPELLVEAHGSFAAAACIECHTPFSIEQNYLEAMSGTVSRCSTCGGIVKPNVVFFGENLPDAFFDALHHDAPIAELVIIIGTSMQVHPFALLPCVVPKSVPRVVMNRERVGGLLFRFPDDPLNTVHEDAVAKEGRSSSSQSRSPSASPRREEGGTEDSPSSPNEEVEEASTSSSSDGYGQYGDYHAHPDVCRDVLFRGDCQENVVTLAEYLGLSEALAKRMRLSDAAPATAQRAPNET
Experimental: as §2, §3

[5] = tested on: Plasmodium falciparum Sir2A; design: method as in PMID 19937668, PMID 18221799; details: previously described; ref [46], [72]; cited from earlier work
[6] = biological target: T3, human SIRT1 (Homo sapiens, UniProt Q96EB6); assay: hSIRT1 deacetylase inhibition (CycLex kit); type: biochemical; details: 200 μM
T3 sequence (Q96EB6 1-747): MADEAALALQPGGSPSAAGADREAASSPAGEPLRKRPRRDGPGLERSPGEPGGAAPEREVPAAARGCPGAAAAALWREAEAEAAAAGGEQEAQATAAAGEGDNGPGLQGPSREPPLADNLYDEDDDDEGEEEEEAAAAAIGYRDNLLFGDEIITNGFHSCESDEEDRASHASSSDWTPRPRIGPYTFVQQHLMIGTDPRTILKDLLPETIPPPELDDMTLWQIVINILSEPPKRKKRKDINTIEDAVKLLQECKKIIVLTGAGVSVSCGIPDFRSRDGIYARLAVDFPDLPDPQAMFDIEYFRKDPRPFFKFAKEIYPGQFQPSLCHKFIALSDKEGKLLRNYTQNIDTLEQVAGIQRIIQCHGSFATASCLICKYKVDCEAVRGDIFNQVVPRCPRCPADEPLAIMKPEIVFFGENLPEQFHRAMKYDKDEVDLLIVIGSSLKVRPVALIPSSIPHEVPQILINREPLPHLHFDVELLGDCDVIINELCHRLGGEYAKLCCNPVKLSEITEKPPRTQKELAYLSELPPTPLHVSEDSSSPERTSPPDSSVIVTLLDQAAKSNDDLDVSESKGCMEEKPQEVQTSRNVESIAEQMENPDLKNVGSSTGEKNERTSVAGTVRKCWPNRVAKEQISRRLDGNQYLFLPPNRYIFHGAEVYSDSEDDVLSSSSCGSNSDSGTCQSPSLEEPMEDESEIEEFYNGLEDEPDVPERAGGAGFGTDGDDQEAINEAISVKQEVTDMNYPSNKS

NC(=O)c1cccnc1 [Nicotinamide, nicotinamide, reference compound]
Activity in the amastigote assay [1]: no amastigote anti-parasitic activity was detected | IC50 ([2]; 10 μM Ac-peptide and 200 μM NAD+, read-out: IC50 of TcSir2rp1 inhibition): 456 ± 44 µM | inhibition at 200 µM ([2]; 200 μM): 34 ± 1% | inhibition at 200 µM [3]: 70 ± 5% | inhibition at 200 µM [4]: 82% | IC50 [5]: 51.2 ± 3 µM | inhibition at 200 µM [6]: 66 ± 10%

From publication PMC5794198, “Inhibitors of Trypanosoma cruzi Sir2 related protein 1 as potential drugs against Chagas disease” (PLoS Neglected Tropical Diseases, 2018)
